BigSolDB 2.1

O=Cc1ccc(C(=O)O)cc1
solubility (mole fraction)
Details	283.15 K	288.15 K	293.15 K	298.15 K	303.15 K	308.15 K	313.15 K	318.15 K	323.15 K
in NMP	0.0654	0.0767	0.0897	0.104	0.121	0.14	0.161	0.184	0.211
in ethanol	0.00815	0.00973	0.0115	0.0134	0.0155	0.0181	0.0211	0.0246	0.028
in isopropanol	0.00498	0.00612	0.00727	0.00867	0.0103	0.0121	0.014	0.0163	0.0185
in methanol	0.00781	0.00899	0.00999	0.0115	0.0129	0.0144	0.0163	0.0178	0.02
in water	2.15e-05	2.83e-05	3.61e-05	4.64e-05	5.91e-05	7.67e-05	9.57e-05	0.00012	0.000148
